Results from US9643999B2 (Bristol-Myers Squibb Company, priority 2012, dated 2017).
Like-named read-outs stand apart in the source and are kept apart here.

What was measured:
[1] = tested on: HCV genotype 1a replicon; experiment: HCV replicon luciferase reporter assay, genotype 1a (LE_1a); assay type: cell-based; conditions: Hepatitis C virus, 72 h, HUH-7 cells, genotype 1a H77 replicon, 3 days incubation, Renilla luciferase
Description: (§1) An HCV replicon whole cell system was established as described by Lohmann V, Korner F, Koch J, Herian U, Theilmann L, Bartenschlager R., Science 285(5424):110-3 (1999) and modified to introduce a luciferase reporter, as first described by Krieger et al (Krieger N, Lohmann V, and Bartenschlager R, J. Virol. 75(10):4614-4624 (2001)). cDNA encoding a humanized form of the Renilla luciferase gene and a linker sequence fused directly to the 3′-end of the luciferase gene were introduced into the replicon construct using an Asc1 restriction site located in core, directly upstream of the neomycin marker gene. The adaptive mutation at position 1179 (serine to isoleucine) was also introduced (Blight K J, Kolykhalov, A A, Rice, C M, Science 290(5498):1972-1974). A stable cell line constitutively expressing this HCV replicon construct was generated by first linearizing plasmid DNAs with ScaI. RNA transcripts were synthesized in vitro using the T7 MegaScript transcription kit (Ambion, Austin, Tex.) according to manufacturer's directions. In vitro transcripts of the cDNA were transfected into the human hepatoma cell line, HUH-7. […] Resulting cell lines were characterized for positive and negative strand RNA production and protein production over time.
A stable HCV replicon luciferase reporter cell line representing the genotype 1a H77 strain (Yanagi M, Purcell R H, Emerson S U, et al. Transcripts from a single full-length cDNA clone of hepatitis C virus are infectious when directly transfected into the liver of a chimpanzee. Proc Natl Acad Sci USA 1997; 94(16):8738-8743) was generated as described previously for the genotype 1b(Con1) replicon luciferase cell line. The replicon construct was modified by introducing mutations were introduced into the genes encoding the NS3 helicase domain (proline replaced by leucine at position 1496) and NS5A (serine to isoleucine at position 2204) to improve replication in cell culture.
(§2) HCV replicon luciferase assays were developed to monitor the inhibitory effects of compounds described in the disclosure on HCV genotypes 1a and 1b viral replication. HUH-7 cells, constitutively expressing the HCV replicon, were grown in Dulbecco's Modified Eagle Media (DMEM) (Gibco-BRL) containing 10% Fetal calf serum (FCS) (Sigma) and 1 mg/mL G418 (Gibco-BRL). Compounds were serially diluted 3 folds in DMSO for a twenty-point titration and subsequently transferred to sterile 384-well tissue-culture treated plates (Corning cat #3571). The plates were then seeded with 50 μL of cells at a density of 3.0×10^3 cells/well in DMEM containing 4% FCS (final DMSO concentration at 0.5%). After 3 days incubation at 37° C., cells were analyzed for Renilla Luciferase activity using the EnduRen as substrate (Promega cat #E6485). The EnduRen substrate was diluted in DMEM and then added to the plates to a final concentration of 7.5 μM. The plates were incubated for 2 hrs at 37° C. and then read immediately for 30 seconds with Viewlux Imager (PerkinElmer) using a luminescence program. To assess cytotoxicity of compounds, CC50 values were generated by multiplexing the EnduRen-containing plates with Cell Titer-Blue (Promega, cat #G8082). Cell-Titer Blue (3 μL) was added to each well and incubated for 8 hrs at 37° C. The fluorescence signal from each well was read, with an excitation wavelength at 525/10 nm and an emission wavelength of 598/10 nm, using the Viewlux Imager.
(§3) The EC50 values for compounds were calculated by using a four-parameter logistic equation: y=A+((B−A)/(1+((C/x)^D))), where A and B denotes minimal and maximal % inhibition, respectively, C is the EC50, D is the hill slope and x represents compound concentration.

[2] = tested on: HCV genotype 1b replicon; experiment: HCV replicon luciferase reporter assay, genotype 1b (LE_1b); assay type: cell-based; conditions: Hepatitis C virus, 72 h, HUH-7 cells, genotype 1b (Con1) replicon, 3 days incubation, Renilla luciferase
Description: as §1, with “time. […]” for “time.”
as §2, §3

Structure (SMILES)	EC50 ([1]; read-out: LE_1a (EC50, range))	EC50 ([2]; read-out: LE_1b (EC50, range))	EC50 ([1]; read-out: LE_1a (EC50))	EC50 ([2]; read-out: LE_1b (EC50))
[2H]C([2H])([2H])C1(S(=O)(=O)NC(=O)[C@@]23C[C@H]2/C=C\CC[C@@H](C)C[C@@H](CC)[C@H](NC(=O)OC(C)(C)C)C(=O)N2C[C@H](Oc4nccc5cc(OC)c(F)cc45)C[C@H]2C(=O)N3)CC1 [Compound 5507]	1.01 to 5 nM	0.51 to 1 nM	–	–
[2H]C([2H])([2H])C1(S(=O)(=O)NC(=O)[C@@]23C[C@H]2/C=C\CC[C@@H](C)C[C@@H](CC)[C@H](NC(=O)OC(C)(C)C)C(=O)N2C[C@H](Oc4nccc5cc(OCC)c(F)cc45)C[C@H]2C(=O)N3)CC1 [Compound 5509]	1.01 to 5 nM	0.51 to 1 nM	–	–
[2H]C([2H])([2H])C1(S(=O)(=O)NC(=O)[C@@]23C[C@H]2/C=C\CC[C@@H](C)C[C@@H](CC)[C@H](NC(=O)OC(C)(C)C(F)(F)F)C(=O)N2C[C@H](Oc4nccc5cc(OC)c(F)cc45)C[C@H]2C(=O)N3)CC1 [Compound 5511]	1.01 to 5 nM	1.01 to 5 nM	–	–
[2H]C([2H])([2H])C1(S(=O)(=O)NC(=O)[C@@]23C[C@H]2/C=C\CC[C@@H](C)C[C@@H](CC)[C@H](NC(=O)OC(C)(C)C(C)(F)F)C(=O)N2C[C@H](Oc4nccc5cc(OC)c(F)cc45)C[C@H]2C(=O)N3)CC1 [Compound 5513]	1.01 to 5 nM	0.51 to 1 nM	–	–
[2H]C([2H])([2H])C1(S(=O)(=O)NC(=O)[C@@]23C[C@H]2/C=C\CC[C@@H](C)C[C@@H](CC)[C@H](NC(=O)OC(C)(C)C(F)F)C(=O)N2C[C@H](Oc4nccc5cc(OC)c(F)cc45)C[C@H]2C(=O)N3)CC1 [Compound 5515]	1.01 to 5 nM	0.51 to 1 nM	–	–
[2H]C([2H])([2H])C1(S(=O)(=O)NC(=O)[C@@]23C[C@H]2/C=C\CC[C@@H](C)C[C@@H](CC)[C@H](NC(=O)OC(C)(C)C(C)(F)F)C(=O)N2C[C@H](Oc4nccc5cc(OCC)c(F)cc45)C[C@H]2C(=O)N3)CC1 [Compound 5519]	1.01 to 5 nM	0.51 to 1 nM	–	–
[2H]C([2H])([2H])C1(S(=O)(=O)NC(=O)[C@@]23C[C@H]2/C=C\CC[C@@H](C)C[C@@H](CC)[C@H](NC(=O)OC(C)(C)C(F)F)C(=O)N2C[C@H](Oc4nccc5cc(OCC)c(F)cc45)C[C@H]2C(=O)N3)CC1 [Compound 5521]	1.01 to 5 nM	0.1 to 0.5 nM	1.23 nM	0.47 nM
[2H]C([2H])([2H])C1(S(=O)(=O)NC(=O)[C@@]23C[C@H]2/C=C\CC[C@@H](C)C[C@@H](CC)[C@H](NC(=O)OC(C)(C)C(F)F)C(=O)N2C[C@H](Oc4ncc(OC)c5ccccc45)C[C@H]2C(=O)N3)CC1 [Compound 5549]	0.51 to 1 nM	0.51 to 1 nM	–	–
C[C@@H]1CC/C=C\[C@@H]2C[C@@]2(C(=O)NS(=O)(=O)C2(C)CC2)NC(=O)[C@@H]2C[C@@H](Oc3nc4nncn4c4ccccc34)CN2C(=O)[C@@H](NC(=O)OC(C)(C)C)[C@H](C)C1 [Compound 6120, tert-butyl((2R,6S,7R,9R,13aS,14aR,16aS,Z)-2-([1,2,4]triazolo[4,3-a]quinazolin-5-yloxy)-7,9-dimethyl-14a-(((1-methylcyclopropyl)sulfonyl)carbamoyl)-5,16-dioxo-1,2,3,5,6,7,8,9,10,11,13a,14,14a,15,16,16a-hexadecahydrocyclopropa[e]pyrrolo[1,2-a][1,4]diazacyclopentadecin-6-yl)carbamate]	35 to 145 nM	35 to 145 nM	–	–
C[C@@H]1CC/C=C\[C@@H]2C[C@@]2(C(=O)NS(=O)(=O)C2(C)CC2)NC(=O)[C@@H]2C[C@@H](Oc3nc4nccn4c4ccccc34)CN2C(=O)[C@@H](NC(=O)OC(C)(C)C)[C@H](C)C1 [Compound 6122, tert-butyl((2R,6S,7R,9R,13aS,14aR,16aS,Z)-2-(imidazo[1,2-a]quinazolin-5-yloxy)-7,9-dimethyl-14a-(((1-methylcyclopropyl)sulfonyl)carbamoyl)-5,16-dioxo-1,2,3,5,6,7,8,9,10,11,13a,14,14a,15,16,16a-hexadecahydrocyclopropa[e]pyrrolo[1,2-a][1,4]diazacyclopentadecin-6-yl)carbamate]	35 to 145 nM	35 to 145 nM	72 nM	72.5 nM
C[C@@H]1CC/C=C\[C@@H]2C[C@@]2(C(=O)NS(=O)(=O)C2(C)CC2)NC(=O)[C@@H]2C[C@@H](Oc3nc4nncn4c4ccccc34)CN2C(=O)[C@@H](NC(=O)OC(C)(C)C(F)(F)F)[C@H](C)C1 [Compound 6125]	35 to 145 nM	35 to 145 nM	–	–
C[C@@H]1CC/C=C\[C@@H]2C[C@@]2(C(=O)NS(=O)(=O)C2(C)CC2)NC(=O)[C@@H]2C[C@@H](Oc3nc4nccn4c4ccccc34)CN2C(=O)[C@@H](NC(=O)OC(C)(C)C(F)(F)F)[C@H](C)C1 [Compound 6127]	5.01 to 35 nM	5.01 to 35 nM	–	–
C[C@@H]1CC/C=C\[C@@H]2C[C@@]2(C(=O)NS(=O)(=O)C2(C)CC2)NC(=O)[C@@H]2C[C@@H](Oc3nc4nccn4c4ccc(Cl)cc34)CN2C(=O)[C@@H](NC(=O)OC(C)(C)C(F)(F)F)[C@H](C)C1 [Compound 6129]	1.01 to 5 nM	0.51 to 1 nM	4.21 nM	0.78 nM
C[C@@H]1CC/C=C\[C@@H]2C[C@@]2(C(=O)NS(=O)(=O)C2(CF)CC2)NC(=O)[C@@H]2C[C@@H](Oc3nc4nccn4c4ccc(Cl)cc34)CN2C(=O)[C@@H](NC(=O)OC(C)(C)C(F)(F)F)[C@H](C)C1 [Compound 6131]	5.01 to 35 nM	1.01 to 5 nM	–	–
CC[C@@H]1C[C@H](C)CC/C=C\[C@@H]2C[C@@]2(C(=O)NS(=O)(=O)C2(C)CC2)NC(=O)[C@@H]2C[C@@H](Oc3nc4nccn4c4ccc(Cl)cc34)CN2C(=O)[C@H]1NC(=O)OC(C)(C)C(F)(F)F [Compound 6133]	5.01 to 35 nM	0.51 to 1 nM	–	–
Cc1cn2c(n1)nc(O[C@@H]1C[C@H]3C(=O)N[C@]4(C(=O)NS(=O)(=O)C5(C)CC5)C[C@H]4/C=C\CC[C@@H](C)C[C@@H](C)[C@H](NC(=O)OC(C)(C)C(F)(F)F)C(=O)N3C1)c1cc(Cl)ccc12 [Compound 6135]	1.01 to 5 nM	0.51 to 1 nM	–	–
Cc1cn2c(n1)nc(O[C@@H]1C[C@H]3C(=O)N[C@]4(C(=O)NS(=O)(=O)C5(C)CC5)C[C@H]4/C=C\CC[C@@H](C)C[C@@H](C)[C@H](NC(=O)OC(C)(C)C(C)(F)F)C(=O)N3C1)c1cc(Cl)ccc12 [Compound 6137]	1.01 to 5 nM	0.51 to 1 nM	–	–
Cc1cn2c(n1)nc(O[C@@H]1C[C@H]3C(=O)N[C@]4(C(=O)NS(=O)(=O)C5(CF)CC5)C[C@H]4/C=C\CC[C@@H](C)C[C@@H](C)[C@H](NC(=O)OC(C)(C)C(F)(F)F)C(=O)N3C1)c1cc(Cl)ccc12 [Compound 6139]	5.01 to 35 nM	1.01 to 5 nM	–	–
